Laboratory results from the NIST ThermoML archive (doi:10.1016/j.jct.2012.06.010).

How the values were obtained:
[1] = DTA
[2] = Molar enthalpy of transition or fusion; conditions: DSC
[3] = molar heat capacity at constant pressure; conditions: 101.33 kPa, Small sample (50 mg) DSC

O=C(O)c1cccnc1 [3-carboxylpyridine]
Conditions | Molar enthalpy of transition or fusion, [2] [kcal/mol] | Triple point temperature, [1] [K]
Crystal 1 | 6.74 | 509.91
Crystal 2 | 0.215 | 455

[3]
Conditions | molar heat capacity at constant pressure [J/K/mol]
296.01 K, Crystal 2 | 139.9
298.06 K, Crystal 2 | 141.2
303.2 K, Crystal 2 | 144.2
308.34 K, Crystal 2 | 147
313.48 K, Crystal 2 | 149.4
318.62 K, Crystal 2 | 152.3
323.76 K, Crystal 2 | 154.8
328.9 K, Crystal 2 | 156.5
334.04 K, Crystal 2 | 158.2
339.18 K, Crystal 2 | 159.8
343.24 K, Crystal 2 | 160.4
348.38 K, Crystal 2 | 163.3
353.52 K, Crystal 2 | 165.9
358.66 K, Crystal 2 | 167.9
363.8 K, Crystal 2 | 170
368.94 K, Crystal 2 | 171.5
374.08 K, Crystal 2 | 173.2
379.22 K, Crystal 2 | 175.4
384.37 K, Crystal 2 | 177.6
389.51 K, Crystal 2 | 179.4
394.65 K, Crystal 2 | 181.2
399.79 K, Crystal 2 | 183.5
404.93 K, Crystal 2 | 185.8
410.07 K, Crystal 2 | 189.4
415.21 K, Crystal 2 | 194.3
420.35 K, Crystal 2 | 198
425.49 K, Crystal 2 | 201.7
430.63 K, Crystal 2 | 205.3
435.77 K, Crystal 2 | 212.1
440.91 K, Crystal 2 | 219.1
448.1 K, Crystal 2 | 231.3
449.13 K, Crystal 2 | 240.6
450.16 K, Crystal 2 | 254.7
451.19 K, Crystal 2 | 273.6
452.22 K, Crystal 2 | 292.5
453.24 K, Crystal 2 | 334.7
454.27 K, Crystal 2 | 418.6
455.3 K, Crystal 2 | 440.3
456.33 K, Crystal 1 | 382.6
457.36 K, Crystal 1 | 326.3
458.38 K, Crystal 1 | 297.2
459.41 K, Crystal 1 | 280.2
460.44 K, Crystal 1 | 263.1
461.47 K, Crystal 1 | 251.7
462.5 K, Crystal 1 | 245.7
463.52 K, Crystal 1 | 239.8
464.55 K, Crystal 1 | 235.7
465.58 K, Crystal 1 | 233.6
466.61 K, Crystal 1 | 231.4
467.64 K, Crystal 1 | 229.5
468.66 K, Crystal 1 | 227.8
469.69 K, Crystal 1 | 226.1
479.97 K, Crystal 1 | 231.6
482.03 K, Crystal 1 | 232.2
487.17 K, Crystal 1 | 233.6
492.31 K, Crystal 1 | 235.1
497.45 K, Crystal 1 | 237.2
500.53 K, Crystal 1 | 245.9
503.62 K, Crystal 1 | 254.7
504.65 K, Crystal 1 | 280.5
505.67 K, Crystal 1 | 306.3
506.7 K, Crystal 1 | 422.7
507.73 K, Crystal 1 | 1073.5
508.76 K, Crystal 1 | 7052.2
510.81 K, Liquid | 1773.6
511.84 K, Liquid | 309.8
512.87 K, Liquid | 307.2
515.95 K, Liquid | 307.4
518.01 K, Liquid | 308.6
523.15 K, Liquid | 311.5
528.29 K, Liquid | 314.4
531.37 K, Liquid | 316.2
